Data as given in paper PMC8728392, “Synthesis, Anticancer Assessment, and Molecular Docking of Novel Chalcone-Thienopyrimidine Derivatives in HepG2 and MCF-7 Cell Lines” (Oxidative Medicine and Cellular Longevity, 2021).

Columns and labels:
[1] = system: human breast cancer cell line (MCF-7); test: MTT assay, cytotoxicity; format: cell-based; conditions: for survival percentage (mean ± SEM): MCF-7, 24 hours
Summary of the method: (§1)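 Cells were seeded at 5×10^4/well in DMEM and allowed to attach for 24 h, then exposed to compounds in DMSO for 24 h, in triplicate wells. MTT added for 4 h, then OD read at […]. Survival is expressed as % of DMSO control, and IC50 is taken from survival-versus-concentration plots.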

[2] = system: human liver cancer cell line (HepG2); test: MTT assay, cytotoxicity; format: cell-based; conditions: for survival percentage (mean ± SEM): HepG2, 24 hours
Summary of the method: as §1

HepG2 cells = test: Annexin V-FITC/PI apoptotic assay; format: cell-based, human
Source text: Annexin V-fluorescein isothiocyanate (FITC) and counterstaining with propidium iodide (PI) using the Annexin V-FITC/PI apoptosis detection kit (BD Biosciences, San Diego, CA) were employed to distinguish early and late apoptotic cells according to the manufacturer's directions. Annexin V conjugated with fluorescein isothiocyanate was used to quantify the loss of phosphatidylserine asymmetry in cell membranes involved in apoptosis, and propidium iodide can distinguish between early apoptosis, late apoptotic, and necrotic cells. Analyses were achieved by using a FACSCalibur flow cytometer (BD Biosciences, San Jose, CA).
Cells were gently washed twice with PBS accompanied by tryptic digestion (0.25% trypsin/EDTA) and washed yet again with PBS. All the cells including the floating and adherent ones were harvested, pooled and stained with […] in 1× binding buffer for 15 min at room temperature in the dark. Analyses were achieved by FACS Calibur flow cytometer (BD Biosciences, San Jose, CA).

MDA in MCF-7 cells = test: Lipid peroxidation (MDA); format: cell-based, human; conditions: IC50, in comparison to untreated cells
Description: MDA is described as a lipid peroxidation product. It reacts with thiobarbituric acid to produce a red substance that is absorbed at 535 nm.
MDA has been described as the product of lipid peroxidation that reacts with thiobarbituric acid to produce a red substance that is absorbed at 535 nm (Kei et al., 1978). HepG2 and MCF7 cells treated with synthetic thienopyrimidine were mixed with 2 ml of solution of trichloroacetic acid (TCA), thiobarbituric acid (TBA) and hydrochloric acid (HCl) and mixed thoroughly, and then heated in a boiling water bath. during 15 minutes. After cooling, the precipitate was removed by centrifugation at 3000 rpm for 10 minutes. Relative to the reagent blank, which measures the absorbance at 535 nm, the blank reagent contains all reagents except cells. The MDA concentration is expressed as nmol/ml using a calibration curve.

Row | Compound | survival percentage (mean ± SEM) ([1]; 4.8828125 μg/ml) [%] | survival percentage (mean ± SEM) ([1]; 9.765625 μg/ml) [%] | survival percentage (mean ± SEM) ([1]; 19.53125 μg/ml) [%] | survival percentage (mean ± SEM) ([1]; 39.0625 μg/ml) [%] | survival percentage (mean ± SEM) ([1]; 78.125 μg/ml) [%] | survival percentage (mean ± SEM) ([1]; 156.25 μg/ml) [%] | survival percentage (mean ± SEM) ([1]; 312.5 μg/ml) [%] | survival percentage (mean ± SEM) ([1]; 625 μg/ml) [%] | survival percentage (mean ± SEM) ([1]; 1250 μg/ml) [%] | survival percentage (mean ± SEM) ([1]; 2500 μg/ml) [%] | survival percentage (mean ± SEM) ([1]; 5000 μg/ml) [%] | survival percentage (mean ± SEM) ([1]; 10000 μg/ml) [%] | fold more effective anticancer activity than 5-FU ([1]; MCF-7 cell line) [fold] | survival percentage (mean ± SEM) ([2]; 4.8828125 μg/ml) [%] | survival percentage (mean ± SEM) ([2]; 9.765625 μg/ml) [%] | survival percentage (mean ± SEM) ([2]; 19.53125 μg/ml) [%] | survival percentage (mean ± SEM) ([2]; 39.0625 μg/ml) [%] | survival percentage (mean ± SEM) ([2]; 78.125 μg/ml) [%] | survival percentage (mean ± SEM) ([2]; 156.25 μg/ml) [%] | survival percentage (mean ± SEM) ([2]; 312.5 μg/ml) [%] | other results
1 | CCOC(=O)Cn1c(SCC(=O)Nc2ccc(C(=O)/C=C\c3cc(OC)c(OC)c(OC)c3)cc2)nc2sc3c(c2c1=O)CCN(C(=O)OCC)C3 [Compound 3b, Ethyl (Z)-3-(2-Ethoxy-2-oxoethyl)-4-oxo-2-((2-oxo-2-((4-(3-(3,4,5 trimethoxyphenyl)acryloyl)phenyl)amino)ethyl)thio)-3,5,6,8 tetra-hydropyrido[4′,3′:4,5]thieno[2,3-d]pyrimidine-7(4H)-carboxylate] | 104.9 ± 0.016 | 102.6 ± 0.015 | 83.2 ± 0.022 | 31.8 ± 0.009 | 27.7 ± 0.026 | 21.3 ± 0.013 | 21.0 ± 0.001 | 20.3 ± 0.002 | 20.3 ± 0.001 | 20.1 ± 0.001 | 19.7 ± 0.002 | 17.3 ± 0.001 | 846.5 | 110.1 ± 0.046 | 67.9 ± 0.048 | 23.2 ± 0.012 | 18.4 ± 0.006 | 17.3 ± 0.007 | 16.2 ± 0.004 | 13.3 ± 0.004 | times more activity compared to compound 3g ([1]; MCF-7 cell line): ~ 2.5 times; survival percentage (mean ± SEM) ([2]; 625 μg/ml): 12.9 ± 0.006%; survival percentage (mean ± SEM) ([2]; 1250 μg/ml): 12.7 ± 0.002%; survival percentage (mean ± SEM) ([2]; 2500 μg/ml): 12.2 ± 0.001%; survival percentage (mean ± SEM) ([2]; 5000 μg/ml): 12.1 ± 0.001%; survival percentage (mean ± SEM) ([2]; 10000 μg/ml): 12.1 ± 0.002%; times more activity compared to compounds 3a and 3c ([2]; HepG2 cell line): ~ 18 times; early and late apoptosis (HepG2 cells): significantly exhibited early and late apoptosis; MDA (MDA in MCF-7 cells): significant elevation; melting point: 172 to 173 °C
2 | CCOC(=O)Cn1c(SCC(=O)Nc2ccc(C(=O)/C=C\c3cccc([N+](=O)[O-])c3)cc2)nc2sc3c(c2c1=O)CC(C)(C)NC3(C)C [Compound 3g, Ethyl (Z)-2-(6,6,8,8-Tetramethyl-2-((2-((4-(3-(3-nitrophenyl)acryloyl)-phenyl)amino)-2-oxoethyl)thio)-4-oxo-5,6,7,8-tetrahydropyrido[4′,3′:4,5]thieno[2,3-d]pyrimidin-3(4H)-yl)acetate] | 105.3 ± 0.032 | 98.2 ± 0.023 | 96.4 ± 0.003 | 81.0 ± 0.009 | 28.0 ± 0.015 | 20.1 ± 0.003 | 19.4 ± 0.004 | 19.9 ± 0.001 | 19.9 ± 0.002 | 19.0 ± 0.001 | 18.9 ± 0.001 | 15.3 ± 0.000 | 350.4 | 131.3 ± 0.033 | 115.9 ± 0.098 | 97.8 ± 0.053 | 64.1 ± 0.038 | 17.5 ± 0.002 | 14.5 ± 0.003 | 14.1 ± 0.002 | survival percentage (mean ± SEM) ([2]; 625 μg/ml): 13.0 ± 0.003%; survival percentage (mean ± SEM) ([2]; 1250 μg/ml): 12.5 ± 0.001%; survival percentage (mean ± SEM) ([2]; 2500 μg/ml): 12.7 ± 0.002%; survival percentage (mean ± SEM) ([2]; 5000 μg/ml): 12.5 ± 0.001%; survival percentage (mean ± SEM) ([2]; 10000 μg/ml): 12.3 ± 0.002%; fold more potent activity than 5-FU ([2]; HepG2 cell line): 420.94 fold; early and late apoptosis (HepG2 cells): significantly exhibited early and late apoptosis; MDA (MDA in MCF-7 cells): significant elevation; melting point: 194 to 195 °C
